Assay results taken from patent US11780839B2, “Compounds for treating Huntington's disease” (PTC THERAPEUTICS, INC., priority 2018, dated 2023).

Tested on: Endogenous Huntingtin Protein
Assay: Endogenous Huntingtin Protein Assay (ELISA-based Meso Scale Discovery electrochemiluminescence)
Type: cell-based
Settings: MSD electrochemiluminescence, Table 1
How it was run: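 Huntingtin was captured overnight at 4 °C on plates coated with 1 μg/mL MW1 (polyQ-expanded) or MAB2166 antibody and BSA-blocked. Detection used a rabbit monoclonal and then a SULFO-TAG goat anti-rabbit antibody (0.25 μg/mL, 1 h each, room temperature). Signal was read by electrochemiluminescence.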

IC50	SMILES
≤ 100 nM	Cn1cnc(-c2ccc(-c3cnc(N[C@H]4CC(C)(C)NC(C)(C)[C@H]4F)nn3)c(O)c2)cc1=O [Cpd 246, 6-[4-(3-{[(3S,4S)-3-fluoro-2,2,6,6-tetramethylpiperidin-4-yl]amino}-1,2,4-triazin-6-yl)-3-hydroxyphenyl]-3-methylpyrimidin-4(3H)-one]
≤ 100 nM	CC1(C)C[C@H](Nc2ncc(-c3ccc(-c4c[nH]nn4)cc3O)nn2)[C@H](F)C(C)(C)N1 [Cpd 247, 2-(3-{[(3S,4S)-3-fluoro-2,2,6,6-tetramethylpiperidin-4-yl]amino}-1,2,4-triazin-6-yl)-5-(1H-1,2,3-triazol-4-yl)phenol]
≤ 100 nM	CC1(C)C[C@H](Nc2ncc(-c3ccc(-c4cn5ccnc5cn4)cc3O)nn2)[C@H](F)C(C)(C)N1 [Cpd 248, 2-(3-{[(3S,4S)-3-fluoro-2,2,6,6-tetramethylpiperidin-4-yl]amino}-1,2,4-triazin-6-yl)-5-(imidazo[1,2-a]pyrazin-6-yl)phenol]
≤ 100 nM	CC1(C)C[C@H](Nc2ncc(-c3ccc(-c4ccc5nccn5n4)cc3O)nn2)[C@H](F)C(C)(C)N1 [Cpd 249, 2-(3-{[(3S,4S)-3-fluoro-2,2,6,6-tetramethylpiperidin-4-yl]amino}-1,2,4-triazin-6-yl)-5-(imidazo[1,2-b]pyridazin-6-yl)phenol]
100 to 500 nM	CC(C)(C)NC1CCN(c2ncc(-c3ccc(-c4ncco4)cc3O)nn2)C1 (stereo not drawn) [Cpd 250, 2-{3-[3-(tert-butylamino)pyrrolidin-1-yl]-1,2,4-triazin-6-yl}-5-(1,3-oxazol-2-yl)phenol]
100 to 500 nM	CN1CCC2(CC1)CN(c1ncc(-c3ccc(-c4nnn(C)n4)cc3O)nn1)C2 [Cpd 251, 2-[3-(7-methyl-2,7-diazaspiro[3.5]nonan-2-yl)-1,2,4-triazin-6-yl]-5-(2-methyl-2H-tetrazol-5-yl)phenol]
> 500 nM	CN1CCC2(CC1)CN(c1ncc(-c3ccc(-c4ncco4)cc3O)nn1)C2 [Cpd 252, 2-[3-(7-methyl-2,7-diazaspiro[3.5]nonan-2-yl)-1,2,4-triazin-6-yl]-5-(1,3-oxazol-2-yl)phenol]
≤ 100 nM	Cn1ccc(-c2ccc(-c3cnc(NC4CC(C)(C)NC(C)(C)C4)nn3)c(O)c2)n1 [Cpd 253, 5-(1-methyl-1H-pyrazol-3-yl)-2-{3-[(2,2,6,6-tetramethylpiperidin-4-yl)amino]-1,2,4-triazin-6-yl}phenol]
≤ 100 nM	COc1cc(-c2ccc(-c3cnc(NC4CC(C)(C)NC(C)(C)C4)nn3)c(O)c2)ncn1 [Cpd 254, 5-(6-methoxypyrimidin-4-yl)-2-{3-[(2,2,6,6-tetramethylpiperidin-4-yl)amino]-1,2,4-triazin-6-yl}phenol]
100 to 500 nM	CN1CCC2(CC1)CN(c1ncc(-c3ccc(-c4ccc5nccn5n4)cc3O)nn1)C2 [Cpd 256, 5-(imidazo[1,2-b]pyridazin-6-yl)-2-[3-(7-methyl-2,7-diazaspiro[3.5]nonan-2-yl)-1,2,4-triazin-6-yl]phenol]
1000 to 3000 nM	CN1CCC2(CC1)CN(c1ncc(-c3ccc(-c4cn5ccnc5cn4)cc3O)nn1)C2 [Cpd 257, 5-(imidazo[1,2-a]pyrazin-6-yl)-2-[3-(7-methyl-2,7-diazaspiro[3.5]nonan-2-yl)-1,2,4-triazin-6-yl]phenol]
≤ 100 nM	CC(C)NC1CCN(c2ncc(-c3ccc(-c4c[nH]nn4)cc3O)nn2)C1 (stereo not drawn) [Cpd 258, 2-(3-{3-[(propan-2-yl)amino]pyrrolidin-1-yl}-1,2,4-triazin-6-yl)-5-(1H-1,2,3-triazol-4-yl)phenol]
100 to 500 nM	CC(C)NC1CCN(c2ncc(-c3ccc(-c4nnn(C)n4)cc3O)nn2)C1 (stereo not drawn) [Cpd 259, 5-(2-methyl-2H-tetrazol-5-yl)-2-(3-{3-[(propan-2-yl)amino]pyrrolidin-1-yl}-1,2,4-triazin-6-yl)phenol]
≤ 100 nM	Cn1ncc2cc(-c3ccc(-c4cnc(N[C@H]5CC(C)(C)NC(C)(C)[C@H]5F)nn4)c(O)c3)ccc21 [Cpd 260, 2-(3-{[(3S,4S)-3-fluoro-2,2,6,6-tetramethylpiperidin-4-yl]amino}-1,2,4-triazin-6-yl)-5-(1-methyl-1H-indazol-5-yl)phenol]
≤ 100 nM	Cn1ccc(-c2ccc(-c3cnc(N[C@H]4CC(C)(C)NC(C)(C)[C@H]4F)nn3)c(O)c2)n1 [Cpd 261, 2-(3-{[(3S,4S)-3-fluoro-2,2,6,6-tetramethylpiperidin-4-yl]amino}-1,2,4-triazin-6-yl)-5-(1-methyl-1H-pyrazol-3-yl)phenol]
≤ 100 nM	CC1CN(c2ncc(-c3ccc(-c4cn[nH]c4)cc3O)nn2)CC(C)N1 (stereo not drawn) [Cpd 262, 2-[3-(3,5-dimethylpiperazin-1-yl)-1,2,4-triazin-6-yl]-5-(1H-pyrazol-4-yl)phenol]
100 to 500 nM	CC1CN(c2ncc(-c3ccc(-c4ccn(C)n4)cc3O)nn2)CC(C)N1 (stereo not drawn) [Cpd 263, 2-[3-(3,5-dimethylpiperazin-1-yl)-1,2,4-triazin-6-yl]-5-(1-methyl-1H-pyrazol-3-yl)phenol]

IC50	SMILES
100 to 500 nM	CC(C)NC1CCN(c2ncc(-c3ccc(-n4nccn4)cc3O)nn2)C1 (stereo not drawn) [Cpd 264]
≤ 100 nM	COc1cc(-c2ccc(-c3cnc(N4CCC(NC(C)C)C4)nn3)c(O)c2)ncn1 (stereo not drawn) [Cpd 265, 5-(6-methoxypyrimidin-4-yl)-2-(3-{3-[(propan-2-yl)amino]pyrrolidin-1-yl}-1,2,4-triazin-6-yl)phenol]
≤ 100 nM	Cn1ncc(-c2ccc(-c3cnc(NC4CC(C)(C)NC(C)(C)C4)nn3)c(O)c2)n1 [Cpd 266, 5-(2-methyl-2H-1,2,3-triazol-4-yl)-2-{3-[(2,2,6,6-tetramethylpiperidin-4-yl)amino]-1,2,4-triazin-6-yl}phenol]
≤ 100 nM	Cn1nnc(-c2ccc(-c3cnc(NC4CC(C)(C)NC(C)(C)C4)nn3)c(O)c2)n1 [Cpd 267, 5-(2-methyl-2H-tetrazol-5-yl)-2-{3-[(2,2,6,6-tetramethylpiperidin-4-yl)amino]-1,2,4-triazin-6-yl}phenol]
≤ 100 nM	CNC1CCN(c2ncc(-c3ccc(-c4cc(OC)ncn4)cc3O)nn2)C1 (stereo not drawn) [Cpd 268, 5-(6-methoxypyrimidin-4-yl)-2-{3-[(methylamino)pyrrolidin-1-yl]-1,2,4-triazin-6-yl}phenol]
100 to 500 nM	CNC1CCN(c2ncc(-c3ccc(-c4ncns4)cc3O)nn2)C1 (stereo not drawn) [Cpd 269, 2-{3-[3-(methylamino)pyrrolidin-1-yl]-1,2,4-triazin-6-yl}-5-(1,2,4-thiadiazol-5-yl)phenol]
1000 to 3000 nM	CNC1CCN(c2ncc(-c3ccc(-c4ncccn4)cc3O)nn2)C1 (stereo not drawn) [Cpd 270, 2-{3-[3-(methylamino)pyrrolidin-1-yl]-1,2,4-triazin-6-yl}-5-(pyrimidin-2-yl)phenol]
100 to 500 nM	CNC1CCN(c2ncc(-c3ccc(-c4cnc5c(cnn5C)c4)cc3O)nn2)C1 (stereo not drawn) [Cpd 271, 2-{3-[3-(methylamino)pyrrolidin-1-yl]-1,2,4-triazin-6-yl}-5-(1-methyl-1H-pyrazolo[3,4-b]pyridin-5-yl)phenol]
100 to 500 nM	CN1CCC2(CC1)CN(c1ncc(-c3ccc(-c4ncns4)cc3O)nn1)C2 [Cpd 272, 2-[3-(7-methyl-2,7-diazaspiro[3.5]nonan-2-yl)-1,2,4-triazin-6-yl]-5-(1,2,4-thiadiazol-5-yl)phenol]
≤ 100 nM	CC1(C)CC(Nc2ncc(-c3ccc(-n4ccnc4)cc3O)nn2)CC(C)(C)N1 [Cpd 273, 5-(1H-imidazol-1-yl)-2-{3-[(2,2,6,6-tetramethylpiperidin-4-yl)amino]-1,2,4-triazin-6-yl}phenol]
≤ 100 nM	Cc1cn(-c2ccc(-c3cnc(NC4CC(C)(C)NC(C)(C)C4)nn3)c(O)c2)cn1 [Cpd 274, 5-(4-methyl-1H-imidazol-1-yl)-2-{3-[(2,2,6,6-tetramethylpiperidin-4-yl)amino]-1,2,4-triazin-6-yl}phenol]
≤ 100 nM	CC1(C)CC(Nc2ncc(-c3ccc(-n4cnc(F)c4)cc3O)nn2)CC(C)(C)N1 [Cpd 275, 5-(4-fluoro-1H-imidazol-1-yl)-2-{3-[(2,2,6,6-tetramethylpiperidin-4-yl)amino]-1,2,4-triazin-6-yl}phenol]
≤ 100 nM	CC1(C)CC(Nc2ncc(-c3ccc(-n4cc(F)cn4)cc3O)nn2)CC(C)(C)N1 [Cpd 276, 5-(4-fluoro-1H-pyrazol-1-yl)-2-{3-[(2,2,6,6-tetramethylpiperidin-4-yl)amino]-1,2,4-triazin-6-yl}phenol]
≤ 100 nM	Cc1ncc(-c2ccc(-c3cnc(NC4CC(C)(C)NC(C)(C)C4)nn3)c(O)c2)o1 [Cpd 277, 5-(2-methyl-1,3-oxazol-5-yl)-2-{3-[(2,2,6,6-tetramethylpiperidin-4-yl)amino]1,2,4-triazin-6-yl}phenol]
≤ 100 nM	CC(C)(C)NC1CN(c2ncc(-c3ccc(-c4cn[nH]c4)cc3O)nn2)CC1F (stereo not drawn) [Cpd 278, 2-{3-[3-(tert-butylamino)-4-fluoropyrrolidin-1-yl]-1,2,4-triazin-6-yl}-5-(1H-pyrazol-4-yl)phenol]
≤ 100 nM	CC1(C)CC(Nc2ncc(-c3ccc(-c4ncccn4)cc3O)nn2)CC(C)(C)N1 [Cpd 279, 5-(pyrimidin-2-yl)-2-{3-[(2,2,6,6-tetramethylpiperidin-4-yl)amino]-1,2,4-triazin-6-yl}phenol]

SMILES	IC50
CN(c1cnc(-c2ccc(-n3nccn3)cc2O)nn1)C1CC(C)(C)NC(C)(C)C1 [Cpd 255, 2-{6-[methyl(2,2,6,6-tetramethylpiperidin-4-yl)amino]-1,2,4-triazin-3-yl}-5-(2H-1,2,3-triazol-2-yl)phenol]	≤ 100 nM
CN(c1ncc(-c2ccc(-c3cc(F)c4[nH]cnc4c3)cc2O)nn1)C1CC(C)(C)NC(C)(C)C1 [Cpd 280, 5-(7-fluoro-1H-benzimidazol-5-yl)-2-{3-[methyl(2,2,6,6-tetramethylpiperidin-4-yl)amino]-1,2,4-triazin-6-yl}phenol]	≤ 100 nM
CN(c1ncc(-c2ccc(-c3ncc4c(cnn4C)n3)cc2O)nn1)C1CC(C)(C)NC(C)(C)C1 [Cpd 281, 5-(1-methyl-1H-pyrazolo[4,3-d]pyrimidin-5-yl)-2-{3-[methyl(2,2,6,6-tetramethylpiperidin-4-yl)amino]-1,2,4-triazin-6-yl}phenol]	≤ 100 nM
